Measured values as given in patent US20100048728A1, “POLYCYCLIC DIANTHRAQUINONES AS INHIBITORS OF INFLAMMATORY CYTOKINES” (HY BIOPHARMA INC., priority 2006, published 2010).

How the values were obtained:
[1] = system: Herpes simplex type 1 virus induced skin inflammation; test: Inflammatory skin reactions induced by Herpes simplex type 1 virus in guinea pig dorsa; conditions: topical 1.2 or 1.7 μg Hypericin/gr Vaseline, 3× per day for 3 days, evaluated after 96 hrs
[2] = system: acute IBD generated in BALB/C mice by DSS; test: DSS-induced acute inflammatory bowel disease (IBD) in mice, colon length; assay type: in vivo
Protocol: 36 male BABL/c mice anesthetized with Ketamine & Xylazine, are divided into six groups: • Control • Dextran sulfate sodium salt (DSS) alone −8000 MW • DSS with Hypericin 25 μg/animal • DSS with Hypericin 75 μg/animal • Hypericin 25 μg/animal • Hypericin 75 μg/animal
Acute IBD was generated in BALB/C mice (6 mice per group) by DSS administered via the drinking water (3.5% w/v) for 7 days. Hypericin was administered to these animals intraperitoneally at doses of 25 and 75 μg/mouse beginning 48 hrs prior to initiation of DSS administration and at 48 hr intervals thereafter. After 16 days the mice were sacrificed with high dose of sodium pentobarbital, the gastro-intestinal tract removed, its overall length measured and evaluated compared to control untreated healthy mice.

[3] = system: Mouse L cells; test: Protection from TNFα-induced cell death, MTT assay; assay type: cell-based
Protocol: Mouse L cells (ATCC) were cultured in complete MEM medium in 37° C. incubator with 5% CO2 and 95% humidity. The culture cells were divided to […]: i. untreated control ii. Hypericin 0.5 μg/ml iii. Hypericin 1 μg/ml iv. TNFα10 u/ml v. TNFα25 u/ml vi. TNFα10 u/ml and Hypericin 0.5 μg/ml vii. TNFα10 u/ml and Hypericin 1 μg/ml viii. TNFα 25 u/ml and Hypericin 0.5 μg/ml ix. TNFα25 u/ml and Hypericin 1 μg/ml.
Hypericin was applied to the cells 48 hr prior to TNFα administration. The experiment was terminated 24 hrs after TNF administration and cell viability evaluated by MTT assay.

[4] = system: Mouse L cells; test: Protection from TNFα-induced cell death, Hemacolor assay; assay type: cell-based
Protocol: Mouse L cells (ATCC) were cultured in complete MEM medium in 37° C. incubator with 5% CO2 and 95% humidity. The culture cells were divided to 6 separate groups: i. untreated control ii. TNFα25 u/ml iii. TNFα25 u/ml and Hypericin 0.5 μg/ml iv. TNFα25 u/ml and Hypericin 1 μg/ml v. TNFα25 u/ml and Hypericin 5 μg/ml vi. TNFα 25 u/ml and Hypericin 7.5 μg/ml.
Hypericin was applied to the cells 48 hr prior to TNFα administration. The experiment was terminated 24 hrs after TNF administration and cell viability evaluated using the Hemacolor assay.

Cc1cc(O)c2c(=O)c3c(O)cc(O)c4c5c(O)cc(O)c6c(=O)c7c(O)cc(C)c8c1c2c(c34)c(c78)c65 [Hypericin, hypericin]
inflammatory erythema following infection with herpes virus [1]: significantly inhibited | colon length ([2]; Hypericin 25 μg/mouse without DSS): did not alter the colon length | colon length ([2]; Hypericin 75 μg/mouse intraperitoneally with 3.5% DSS, after 16 days, DSS alone 8.016 cm, control 12.6 cm, P≦0.039 vs DSS alone): 9.067 cm | colon length ([2]; Hypericin 75 μg/mouse without DSS): did not alter the colon length | prevention of TNFα induced cell death (MTT) ([3]; Hypericin 0.5 μg/ml 48 hr before TNFα 10 u/ml, P≦0.025758): prevented cell death significantly | prevention of TNFα induced cell death (MTT) ([3]; Hypericin 0.5 μg/ml 48 hr before TNFα 25 u/ml, P≦0.023446): prevented cell death significantly | prevention of TNFα induced cell death (MTT) ([3]; Hypericin 1 μg/ml 48 hr before TNFα 10 u/ml, P≦0.014777): prevented cell death significantly | prevention of TNFα induced cell death (MTT) ([3]; Hypericin 1 μg/ml 48 hr before TNFα 25 u/ml, P≦0.047198): prevented cell death significantly | cell viability (MTT) ([3]; Hypericin alone, compared to the control group): did not alter cell viability | prevention of TNFα induced cell death (Hemacolor) ([4]; Hypericin 0.5 μg/ml 48 hr before TNFα 25 u/ml, P≦0.0045): prevented cell death significantly | prevention of TNFα induced cell death (Hemacolor) ([4]; Hypericin 1 μg/ml 48 hr before TNFα 25 u/ml, P≦0.00049): prevented cell death significantly | prevention of TNFα induced cell death (Hemacolor) ([4]; Hypericin 5 μg/ml 48 hr before TNFα 25 u/ml, P≦0.00105): prevented cell death significantly | prevention of TNFα induced cell death (Hemacolor) ([4]; Hypericin 7.5 μg/ml 48 hr before TNFα 25 u/ml, P≦0.00159): prevented cell death significantly | prevention of TNFα induced cell death (Hemacolor) ([4]; Hypericin 15 μg/ml before TNFα 25 u/ml): did not prevent cell death
